Assay results published in ChEMBL document CHEMBL1201862, “PubChem BioAssay data set” (2004).
Calls of active or inactive are those of the source.

Key:
[1] = target: Cytochrome P450 2C19 (Homo sapiens, UniProt P33261); test: Cytochrome panel assay with activity outcomes. Panel member name: p450-cyp2c19 Compounds with AC50 equal or less than 10 uM are considered active; type: functional; details: read-out: AC50
[2] = target: Cytochrome P450 2C9 (Homo sapiens, UniProt P11712)
[3] = target: T1, Cytochrome P450 1A2 (Homo sapiens, UniProt P05177)
T1 sequence (P05177 whole entry): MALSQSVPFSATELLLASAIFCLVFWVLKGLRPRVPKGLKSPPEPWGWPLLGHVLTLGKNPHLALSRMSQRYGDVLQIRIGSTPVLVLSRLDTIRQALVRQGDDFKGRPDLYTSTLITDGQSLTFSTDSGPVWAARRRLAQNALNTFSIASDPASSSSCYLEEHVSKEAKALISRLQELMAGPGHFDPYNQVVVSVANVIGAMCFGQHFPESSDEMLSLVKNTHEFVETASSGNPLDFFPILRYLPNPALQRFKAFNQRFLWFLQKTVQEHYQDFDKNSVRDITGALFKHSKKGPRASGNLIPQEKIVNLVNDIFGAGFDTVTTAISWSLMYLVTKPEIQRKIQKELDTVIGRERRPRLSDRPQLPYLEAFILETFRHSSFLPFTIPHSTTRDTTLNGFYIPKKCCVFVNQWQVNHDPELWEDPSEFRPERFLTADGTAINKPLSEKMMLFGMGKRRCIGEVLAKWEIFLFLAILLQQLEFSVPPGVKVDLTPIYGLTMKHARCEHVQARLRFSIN

[4] = target: T2, Aminopeptidase N (Plasmodium falciparum FcB1/Columbia, UniProt O96935); test: P. falciparum M1AAP inhibitors, biochemical, fluorogenic H-Leu-NHMec substrate, 1536-well (AID 1445); parameters: species or system Plasmodium falciparum 3D7, 3D7
T2 sequence (O96935 whole entry): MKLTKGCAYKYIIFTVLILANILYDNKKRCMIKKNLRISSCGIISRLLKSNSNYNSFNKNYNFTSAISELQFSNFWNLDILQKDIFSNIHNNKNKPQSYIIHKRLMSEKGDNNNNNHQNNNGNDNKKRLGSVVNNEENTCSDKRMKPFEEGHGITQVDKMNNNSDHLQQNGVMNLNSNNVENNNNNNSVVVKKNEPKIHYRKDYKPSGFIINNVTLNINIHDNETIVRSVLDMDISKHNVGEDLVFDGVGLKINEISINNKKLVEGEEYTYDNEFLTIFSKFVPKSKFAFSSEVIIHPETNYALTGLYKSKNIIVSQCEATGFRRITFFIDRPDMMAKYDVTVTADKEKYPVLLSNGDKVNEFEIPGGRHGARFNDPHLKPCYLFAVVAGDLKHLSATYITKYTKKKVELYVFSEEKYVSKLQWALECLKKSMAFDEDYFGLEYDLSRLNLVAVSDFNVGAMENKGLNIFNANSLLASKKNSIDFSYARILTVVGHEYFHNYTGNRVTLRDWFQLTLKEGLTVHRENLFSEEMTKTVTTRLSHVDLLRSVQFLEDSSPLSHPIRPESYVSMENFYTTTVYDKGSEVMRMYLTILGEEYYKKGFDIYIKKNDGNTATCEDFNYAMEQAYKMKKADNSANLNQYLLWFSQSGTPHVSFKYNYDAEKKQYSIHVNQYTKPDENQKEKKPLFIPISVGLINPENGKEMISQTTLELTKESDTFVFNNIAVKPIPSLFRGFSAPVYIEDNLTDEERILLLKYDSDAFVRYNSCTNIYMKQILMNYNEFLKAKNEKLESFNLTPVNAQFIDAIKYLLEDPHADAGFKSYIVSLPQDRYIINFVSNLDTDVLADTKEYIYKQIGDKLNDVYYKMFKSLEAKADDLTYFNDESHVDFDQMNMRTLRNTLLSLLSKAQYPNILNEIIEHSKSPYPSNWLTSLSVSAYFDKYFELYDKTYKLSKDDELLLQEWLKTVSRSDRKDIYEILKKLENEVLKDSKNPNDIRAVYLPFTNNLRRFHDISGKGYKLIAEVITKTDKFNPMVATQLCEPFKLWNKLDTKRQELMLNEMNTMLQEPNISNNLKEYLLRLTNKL

[5] = target: Induced myeloid leukemia cell differentiation protein Mcl-1 (Homo sapiens, UniProt Q07820); test: MCL1-BIM BH3 interaction inhibitors, dose response, biochemical, fluorescence polarization, BIM-BH3 peptide, 1536-well (AID 2217)
Sequence of Induced myeloid leukemia cell differentiation protein Mcl-1 (Q07820 whole entry): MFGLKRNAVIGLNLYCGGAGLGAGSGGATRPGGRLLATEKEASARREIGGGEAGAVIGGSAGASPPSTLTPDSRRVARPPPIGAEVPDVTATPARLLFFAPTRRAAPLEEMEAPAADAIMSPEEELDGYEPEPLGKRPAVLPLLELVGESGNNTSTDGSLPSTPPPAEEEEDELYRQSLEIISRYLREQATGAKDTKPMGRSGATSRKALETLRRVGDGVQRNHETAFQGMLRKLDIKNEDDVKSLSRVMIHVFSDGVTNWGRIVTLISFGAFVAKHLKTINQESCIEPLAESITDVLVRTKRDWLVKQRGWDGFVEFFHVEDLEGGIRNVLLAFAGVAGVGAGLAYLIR

[6] = target: Bcl-2-like protein 1 (Homo sapiens, UniProt Q07817); test: BCL-XL inhibitors, dose response, selectivity assay for MCL1 inhibitor project, biochemical, fluorescence polarization, 1536-well (AID 2218)
Sequence of Bcl-2-like protein 1 (Q07817 whole entry): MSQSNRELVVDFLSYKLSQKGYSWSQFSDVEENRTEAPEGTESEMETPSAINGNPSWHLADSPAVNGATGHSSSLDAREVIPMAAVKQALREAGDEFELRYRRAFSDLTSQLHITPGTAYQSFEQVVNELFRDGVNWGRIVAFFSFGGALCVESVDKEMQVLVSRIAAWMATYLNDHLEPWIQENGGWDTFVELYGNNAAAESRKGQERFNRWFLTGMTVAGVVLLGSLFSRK

[7] = target: Intestinal-type alkaline phosphatase (Mus musculus, UniProt P24822); test: PubChem AID 488785; type: functional
[8] = target: T3, Alkaline phosphatase, tissue-nonspecific isozyme (Homo sapiens, UniProt P05186); test: TNAP enzyme inhibition by screening hits, dose response, selectivity assay for mouse IAP inhibitor project, biochemical, human TNAP, uHTS hits (AID 488906); type: functional
T3 sequence (P05186 whole entry): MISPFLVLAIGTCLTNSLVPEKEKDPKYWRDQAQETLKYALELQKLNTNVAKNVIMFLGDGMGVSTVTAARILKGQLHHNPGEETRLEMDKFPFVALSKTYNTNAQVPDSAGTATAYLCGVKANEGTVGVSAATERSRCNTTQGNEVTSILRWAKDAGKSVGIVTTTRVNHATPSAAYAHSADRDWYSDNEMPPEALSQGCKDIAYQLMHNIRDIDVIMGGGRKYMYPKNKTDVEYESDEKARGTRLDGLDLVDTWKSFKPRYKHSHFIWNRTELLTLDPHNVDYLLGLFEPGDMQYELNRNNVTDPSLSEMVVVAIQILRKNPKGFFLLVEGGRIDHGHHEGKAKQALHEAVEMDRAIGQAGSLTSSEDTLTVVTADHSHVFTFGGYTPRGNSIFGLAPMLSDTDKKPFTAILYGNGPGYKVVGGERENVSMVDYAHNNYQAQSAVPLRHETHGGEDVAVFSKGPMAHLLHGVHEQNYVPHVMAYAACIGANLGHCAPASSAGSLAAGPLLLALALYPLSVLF

[9] = target: Intestinal-type alkaline phosphatase (Homo sapiens, UniProt P09923); test: inhibition of human intestinal alkaline phosphatase – biochemical, dose response (AID 488876); type: functional
Sequence of Intestinal-type alkaline phosphatase (Homo sapiens, UniProt P09923) (P09923 whole entry): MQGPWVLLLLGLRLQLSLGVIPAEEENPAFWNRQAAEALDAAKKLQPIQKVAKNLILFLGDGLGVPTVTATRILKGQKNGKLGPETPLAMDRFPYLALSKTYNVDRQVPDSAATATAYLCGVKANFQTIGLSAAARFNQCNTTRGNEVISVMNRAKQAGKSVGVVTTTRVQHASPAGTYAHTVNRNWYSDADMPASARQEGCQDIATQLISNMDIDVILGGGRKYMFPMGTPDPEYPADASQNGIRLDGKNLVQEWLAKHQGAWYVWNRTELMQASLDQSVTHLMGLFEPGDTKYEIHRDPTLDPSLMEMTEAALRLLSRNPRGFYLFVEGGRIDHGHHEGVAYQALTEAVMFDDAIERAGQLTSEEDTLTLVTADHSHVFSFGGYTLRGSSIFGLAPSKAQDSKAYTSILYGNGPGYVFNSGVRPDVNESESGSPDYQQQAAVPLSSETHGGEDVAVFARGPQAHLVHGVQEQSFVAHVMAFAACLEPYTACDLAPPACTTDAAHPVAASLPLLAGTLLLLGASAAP

[10] = A cytotoxicity screen of small molecule inhibitors of the PhoP region in Salmonella typhi identified in the primary screen. [Related pubchem assays: 1850, 1864, 1985 ]; type: functional
[11] = growth induction of Burl-1 ts yeast mutant, dose response, counter-screen for SUMOylation pathway inhibitor project, whole organism, S. cerevisiae, luminescence (AID 463199); type: functional
[12] = target: Cytochrome P450 2D6 (Homo sapiens, UniProt P10635);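 note: CYP2D6 member of a cytochrome P450 panel assay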
[13] = target: T4, SUMO-activating enzyme (Homo sapiens, UniProt Q9UBT2); test: SUMOylation inhibitor hit validation, confirmation, SUMOylation inhibitor project, biochemical, AlphaScreen (AID 2018); type: functional
T4 sequence (Q9UBE0 whole entry): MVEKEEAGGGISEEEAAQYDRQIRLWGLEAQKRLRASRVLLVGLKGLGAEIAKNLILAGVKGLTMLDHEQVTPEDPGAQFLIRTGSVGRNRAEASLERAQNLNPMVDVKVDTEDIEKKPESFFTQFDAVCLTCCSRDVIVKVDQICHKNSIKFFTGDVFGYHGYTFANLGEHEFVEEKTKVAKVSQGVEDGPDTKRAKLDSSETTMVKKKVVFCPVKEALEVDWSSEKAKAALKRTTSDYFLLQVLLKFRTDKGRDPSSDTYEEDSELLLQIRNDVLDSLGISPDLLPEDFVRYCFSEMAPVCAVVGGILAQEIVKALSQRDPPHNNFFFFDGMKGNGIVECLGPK
T4 sequence (Q9UBT2 whole entry): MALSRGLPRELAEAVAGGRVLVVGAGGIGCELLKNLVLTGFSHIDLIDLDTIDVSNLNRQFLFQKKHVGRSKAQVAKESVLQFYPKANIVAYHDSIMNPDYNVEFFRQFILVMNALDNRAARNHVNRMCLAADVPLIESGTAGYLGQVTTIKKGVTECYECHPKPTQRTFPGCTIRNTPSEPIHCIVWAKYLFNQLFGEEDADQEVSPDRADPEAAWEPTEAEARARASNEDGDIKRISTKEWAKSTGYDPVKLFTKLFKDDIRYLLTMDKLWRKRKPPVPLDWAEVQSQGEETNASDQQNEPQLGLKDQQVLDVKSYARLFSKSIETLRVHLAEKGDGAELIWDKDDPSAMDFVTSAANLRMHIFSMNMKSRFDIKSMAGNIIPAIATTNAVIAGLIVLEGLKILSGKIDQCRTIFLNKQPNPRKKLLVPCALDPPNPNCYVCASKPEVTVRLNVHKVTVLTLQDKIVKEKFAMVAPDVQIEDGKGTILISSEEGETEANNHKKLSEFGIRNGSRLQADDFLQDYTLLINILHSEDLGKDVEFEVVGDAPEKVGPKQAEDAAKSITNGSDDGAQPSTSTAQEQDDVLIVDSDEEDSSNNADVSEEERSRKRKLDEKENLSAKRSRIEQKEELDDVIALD

[14] = target: T5, Voltage-gated N-type calcium channel alpha-1B subunit/Amyloid beta A4 precursor protein-binding family A member 1 (Homo sapiens, UniProt Q00975+Q02410); type: protein assay
[15] = target: Epstein-Barr nuclear antigen 1 (Epstein-Barr virus (strain B95-8) (HHV-4) (Human herpesvirus 4), UniProt P03211); test: EBNA-1 inhibitors, dose response, biochemical, fluorescence polarization, 1536-well (AID 2381); parameters: species or system human gammaherpesvirus 4;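 note: fluorescence polarization of a Cy5 DNA probe bound by EBNA-1 protein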
Sequence of Epstein-Barr nuclear antigen 1 (P03211 whole entry): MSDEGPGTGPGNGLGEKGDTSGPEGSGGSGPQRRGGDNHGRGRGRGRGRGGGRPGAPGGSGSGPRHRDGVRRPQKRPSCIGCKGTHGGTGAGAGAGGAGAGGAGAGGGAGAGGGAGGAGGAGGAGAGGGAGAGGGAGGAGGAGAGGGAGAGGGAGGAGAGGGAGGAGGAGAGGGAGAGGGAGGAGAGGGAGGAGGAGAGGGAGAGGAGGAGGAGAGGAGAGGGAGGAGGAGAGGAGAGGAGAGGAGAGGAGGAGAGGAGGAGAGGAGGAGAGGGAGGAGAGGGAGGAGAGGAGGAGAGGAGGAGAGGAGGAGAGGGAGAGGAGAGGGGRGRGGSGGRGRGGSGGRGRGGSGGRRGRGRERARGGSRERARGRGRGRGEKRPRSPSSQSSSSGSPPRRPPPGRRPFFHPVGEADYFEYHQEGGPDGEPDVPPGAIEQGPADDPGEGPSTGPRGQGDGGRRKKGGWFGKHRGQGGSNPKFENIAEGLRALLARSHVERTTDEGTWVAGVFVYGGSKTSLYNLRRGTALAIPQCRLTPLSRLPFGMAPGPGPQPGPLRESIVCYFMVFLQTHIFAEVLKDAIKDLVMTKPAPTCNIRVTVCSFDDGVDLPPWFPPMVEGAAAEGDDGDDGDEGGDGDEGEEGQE

[16] = target: T4, SUMO-activating enzyme; test: inhibitors of in vitro SUMOylation cascade, primary screen, biochemical, HTRF, uHTS (AID 2006); type: protein-complex assay
[17] = target: T5, Voltage-gated N-type calcium channel alpha-1B subunit/Amyloid beta A4 precursor protein-binding family A member 1; type: protein assay; remark: listed apart in the source
[18] = target: Lytic switch protein BZLF1 (Epstein-Barr virus (strain B95-8) (HHV-4) (Human herpesvirus 4), UniProt P03206); test: EBV ZTA inhibitors, dose response, counter-screen for EBNA-1 inhibitor project, biochemical, fluorescence polarization, Epstein-Barr virus, 1536-well (AID 2377); parameters: species or system human gammaherpesvirus 4;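 note: fluorescence polarization of Cy5-labelled ZRE DNA probe bound by purified Zta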
Sequence of Lytic switch protein BZLF1 (P03206 whole entry): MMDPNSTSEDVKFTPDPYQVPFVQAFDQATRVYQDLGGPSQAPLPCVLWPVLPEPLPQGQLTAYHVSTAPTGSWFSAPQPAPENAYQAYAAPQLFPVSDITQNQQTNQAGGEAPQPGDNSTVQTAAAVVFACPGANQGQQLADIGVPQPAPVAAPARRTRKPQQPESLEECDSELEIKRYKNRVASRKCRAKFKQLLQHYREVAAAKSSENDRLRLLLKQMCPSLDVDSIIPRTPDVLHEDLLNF

[19] = target: DNA (cytosine-5)-methyltransferase 1 (Homo sapiens, UniProt P26358); test: DNMT1 methyltransferase inhibitors, confirmation, biochemical, fluorescent molecular beacon (AID 602386); type: functional
[20] = target: T6, Low molecular weight phosphotyrosine protein phosphatase (Homo sapiens, UniProt P24666); type: functional; details: read-out: IC50_Mean;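 note: Dose-response confirmation assay measuring inhibition of LMPTP enzyme activity by fluorescence intensity read-out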
T6 sequence (P24666 whole entry): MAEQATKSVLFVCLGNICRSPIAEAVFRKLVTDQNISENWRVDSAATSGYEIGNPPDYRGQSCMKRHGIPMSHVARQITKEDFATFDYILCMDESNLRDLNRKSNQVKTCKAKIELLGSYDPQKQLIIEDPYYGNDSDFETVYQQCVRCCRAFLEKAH

[21] = target: G-protein coupled receptor 55 (Homo sapiens, UniProt Q9Y2T6); test: GPR55 antagonists blocking LPI-driven arrestin recruitment, primary screen, imaging, U2OS, beta-arrestin-GFP, LPI agonist (AID 2013); type: functional;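 note: antagonist potency measured as reduced agonist-driven arrestin aggregation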
Sequence of G-protein coupled receptor 55 (Q9Y2T6 whole entry): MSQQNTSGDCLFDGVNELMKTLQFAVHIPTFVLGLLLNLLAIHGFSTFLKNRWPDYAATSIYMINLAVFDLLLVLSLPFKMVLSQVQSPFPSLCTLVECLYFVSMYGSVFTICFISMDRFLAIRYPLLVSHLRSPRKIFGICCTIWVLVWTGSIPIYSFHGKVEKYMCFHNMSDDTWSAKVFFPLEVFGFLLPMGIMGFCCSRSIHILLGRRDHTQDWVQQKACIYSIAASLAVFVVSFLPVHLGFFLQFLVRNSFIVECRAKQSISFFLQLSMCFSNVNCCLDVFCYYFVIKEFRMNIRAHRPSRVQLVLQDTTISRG

[22] = target: T7, Cannabinoid receptor 1 (Homo sapiens, UniProt P21554); test: SAR analysis of antagonists of the Cannabinoid Receptor 1 using an Image-Based Assay - Set 2. [Related pubchem assays (depositor defined):AID2013, AID2026]; type: functional
T7 sequence (P21554 whole entry): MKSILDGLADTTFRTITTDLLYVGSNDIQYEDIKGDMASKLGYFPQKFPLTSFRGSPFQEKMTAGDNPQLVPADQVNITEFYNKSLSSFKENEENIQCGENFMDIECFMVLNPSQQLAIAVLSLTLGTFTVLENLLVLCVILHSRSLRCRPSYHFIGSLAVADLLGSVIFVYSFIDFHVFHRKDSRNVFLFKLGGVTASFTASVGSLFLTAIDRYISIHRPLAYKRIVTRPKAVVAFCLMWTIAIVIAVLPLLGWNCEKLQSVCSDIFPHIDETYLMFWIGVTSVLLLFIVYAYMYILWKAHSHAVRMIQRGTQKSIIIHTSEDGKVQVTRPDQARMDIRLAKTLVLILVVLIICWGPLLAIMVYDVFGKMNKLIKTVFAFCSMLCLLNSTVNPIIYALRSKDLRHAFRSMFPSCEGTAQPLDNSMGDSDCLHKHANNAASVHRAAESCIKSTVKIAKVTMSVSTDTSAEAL

[23] = target: T8, G-protein coupled receptor 35 (Homo sapiens, UniProt Q9HC97); test: SAR analysis of Agonists of the GPR35 Receptor using an Image-Based Assay - Set 2. [Related pubchem assays (depositor defined):AID2013, AID2026]; type: functional
T8 sequence (Q9HC97 whole entry): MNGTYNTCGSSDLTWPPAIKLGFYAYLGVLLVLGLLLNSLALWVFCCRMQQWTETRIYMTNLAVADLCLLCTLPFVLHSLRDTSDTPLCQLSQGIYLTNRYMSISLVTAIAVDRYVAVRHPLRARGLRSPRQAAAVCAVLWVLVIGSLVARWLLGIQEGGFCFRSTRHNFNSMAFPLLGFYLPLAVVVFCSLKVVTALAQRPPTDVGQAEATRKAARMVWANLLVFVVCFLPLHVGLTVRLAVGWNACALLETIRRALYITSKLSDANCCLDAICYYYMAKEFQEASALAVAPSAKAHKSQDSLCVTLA

[24] = target: T9, Cannabinoid receptor 2 (Homo sapiens, UniProt P34972); test: SAR analysis of antagonists of the Cannabinoid Receptor 2 using an Image-Based Assay. [Related pubchem assays (depositor defined):AID2013, AID2026]; type: functional
T9 sequence (P34972 whole entry): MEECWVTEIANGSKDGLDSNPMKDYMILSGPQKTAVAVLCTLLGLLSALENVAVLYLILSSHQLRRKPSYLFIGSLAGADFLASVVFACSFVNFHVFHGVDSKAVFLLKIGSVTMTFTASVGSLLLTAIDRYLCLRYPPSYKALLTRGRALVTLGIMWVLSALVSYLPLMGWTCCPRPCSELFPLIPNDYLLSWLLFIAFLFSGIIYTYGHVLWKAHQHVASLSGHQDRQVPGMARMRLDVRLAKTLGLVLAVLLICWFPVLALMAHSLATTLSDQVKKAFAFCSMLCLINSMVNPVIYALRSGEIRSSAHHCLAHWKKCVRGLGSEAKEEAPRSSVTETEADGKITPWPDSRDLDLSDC

[25] = target: T7, Cannabinoid receptor 1; test: SAR analysis of agonists of the Cannabinoid Receptor 1 using an Image-Based Assay - Set 2. [Related pubchem assays (depositor defined):AID2013, AID2026]; type: functional
[26] = target: T8, G-protein coupled receptor 35; test: SAR analysis of Antagonists of the GPR35 Receptor using an Image-Based Assay - Set 3. [Related pubchem assays (depositor defined):AID2013, AID2026]; type: functional
[27] = target: T9, Cannabinoid receptor 2; test: SAR analysis of agonists of the Cannabinoid Receptor 2 using an Image-Based Assay. [Related pubchem assays (depositor defined):AID2013, AID2026]; type: functional

Sequence of Cytochrome P450 2C9 (P11712 whole entry): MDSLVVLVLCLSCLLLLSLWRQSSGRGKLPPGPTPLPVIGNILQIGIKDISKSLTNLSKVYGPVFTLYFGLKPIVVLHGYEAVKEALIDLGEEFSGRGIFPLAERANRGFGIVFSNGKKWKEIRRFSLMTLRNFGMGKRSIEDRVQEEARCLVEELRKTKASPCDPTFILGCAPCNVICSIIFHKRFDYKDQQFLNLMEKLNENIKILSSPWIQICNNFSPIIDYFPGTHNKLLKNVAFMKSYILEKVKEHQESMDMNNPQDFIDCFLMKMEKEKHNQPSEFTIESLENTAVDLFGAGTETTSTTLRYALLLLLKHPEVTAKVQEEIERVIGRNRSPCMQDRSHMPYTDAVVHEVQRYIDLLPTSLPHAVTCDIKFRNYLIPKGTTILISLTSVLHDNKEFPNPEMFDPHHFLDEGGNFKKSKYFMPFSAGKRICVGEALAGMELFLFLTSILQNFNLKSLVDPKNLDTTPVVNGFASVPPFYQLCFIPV

Structure (SMILES): COC(=O)[C@@]1(Cc2ccc(F)cc2)[C@@H]2[C@@H](CC(=O)[C@H]2CC(=O)C(=O)N2CCCC2)CN1C(=O)c1ccccc1
- AC50 [1]: 15.8 µM (inconclusive)
- AC50 [2]: 39.8 µM (inconclusive)
- AC50 [3]: inconclusive

Structure (SMILES): Nc1nnc(CC(=O)N/N=C/c2cc([N+](=O)[O-])cc(Br)c2O)s1
- IC50 [4]: 30 µM (active)
- IC50 [5]: 23.1 µM (not active)
- IC50 [6]: > 109 µM (not active)
- IC50 [7]: 2.79 µM (active)
- IC50 [8]: 20.6 µM (active)
- IC50 [9]: > 100 µM (inactive)

Structure (SMILES): CC1CCN(CCCCOc2ccc(Cl)cc2)CC1
- EC50 [10]: > 50 µM (active)
- AC50 [11]: 46.3 µM (active)

Structure (SMILES): COc1ccccc1NC(=O)c1nc[nH]c1C(=O)Nc1ccccc1OC
- AC50 [12]: inconclusive

Structure (SMILES): O=C(COc1ccc(/C=N/NC(=O)c2ccc(O)cc2)cc1)Nc1ccc([N+](=O)[O-])cc1
- IC50 [13]: 9.81 µM (active)
- IC50 [14]: 9.71 µM (active)
- IC50 [15]: 14.5 µM (not active)
- IC50 [16]: 8.49 µM (active)
- IC50 [17]: > 50 µM (inactive)
- IC50 [18]: > 111 µM (not active)
- IC50 [19]: 8.43 µM (active)
- IC50 [20]: 9.58 µM (active)

Structure (SMILES): Cc1nc(N2CCN(C(=O)c3ccco3)CC2)c2c3c(sc2n1)CCCC3
- IC50 [21]: 1.58 µM (active)
- IC50 [22]: > 32 µM (inactive)
- EC50 [23]: > 32 µM (inactive)
- IC50 [24]: > 32 µM (inactive)
- EC50 [25]: > 32 µM (inactive)
- IC50 [26]: > 32 µM (inactive)
- EC50 [27]: > 32 µM (inactive)
